Where a SMILES comes first, the peptide text is derived from it. Bridges are numbered along the chain shown (N, C = ends). [ ]: non-standard residue; d: D form. The star is where a group is joined. d(aThr) = C[C@@H](O)[C@@H](N)C(=O)O; Hexanoyl(5-Me) = CC(C)CCCC(=O)*; dCha = N[C@H](CC1CCCCC1)C(=O)O; Orn = NCCC[C@H](N)C(=O)O; Dhb = C/C=C(\N)C(=O)O
What was measured:
Assay type in all cases: cell-based, human
[1] = test system: A-549; experiment: SRB colorimetric assay of cell growth and viability, A-549; settings: 48 hours exposure; for GI50: read-out: GI50 A-549; for CC50: read-out: LC50 A-549
[2] = test system: SK-MEL-28; experiment: SRB colorimetric assay of cell growth and viability, SK-MEL-28; settings: 48 hours exposure; for CC50: read-out: LC50 MEL-28
[3] = test system: HT-29; experiment: SRB colorimetric assay of cell growth and viability, HT-29; settings: 48 hours exposure; for GI50: read-out: GI50 HT-29; for CC50: read-out: LC50 HT-29
[4] = test system: LoVo; experiment: SRB colorimetric assay of cell growth and viability, LoVo; settings: 48 hours exposure; for CC50: read-out: LC50 LOVO
[5] = test system: LoVo-Dox; experiment: SRB colorimetric assay of cell growth and viability, LoVo-Dox; settings: 48 hours exposure; for CC50: read-out: LC50 LOVO-DOX
How it was run: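 Sulforhodamine B assay run after 48 h of continuous drug contact; cells seeded 5×10^3/well in RPMI 1640 10% FBS, attached 18 h. Triplicate OD490 values give cytostatic (TGI), cytotoxic (LC) and GI parameters.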

[6] = test system: DU-145; experiment: SRB colorimetric assay of cell growth and viability, DU-145; settings: 48 hours exposure
[7] = test system: LNCaP; experiment: SRB colorimetric assay of cell growth and viability, LNCaP; settings: 48 hours exposure; for GI50: read-out: GI50 LN-caP; for CC50: read-out: LC50 LN-caP
[8] = test system: SK-BR-3; experiment: SRB colorimetric assay of cell growth and viability, SK-BR-3; settings: 48 hours exposure
[9] = test system: IGROV-1; experiment: SRB colorimetric assay of cell growth and viability, IGROV-1; settings: 48 hours exposure
[10] = test system: IGROV-ET; experiment: SRB colorimetric assay of cell growth and viability, IGROV-ET; settings: 48 hours exposure; for CC50: read-out: LC50 IGROV-ET
[11] = test system: HeLa; experiment: SRB colorimetric assay of cell growth and viability, HeLa; settings: 48 hours exposure; for CC50: read-out: LC50 HELA
[12] = test system: HeLa-APL; experiment: SRB colorimetric assay of cell growth and viability, HeLa-APL; settings: 48 hours exposure; for CC50: read-out: LC50 HELA-APL
[13] = test system: K-562; experiment: SRB colorimetric assay of cell growth and viability, K-562; settings: 48 hours exposure; for CC50: read-out: LC50 K-562
[14] = test system: PANC-1; experiment: SRB colorimetric assay of cell growth and viability, PANC-1; settings: 48 hours exposure; for CC50: read-out: LC50 PANC-1

C/C=C1\NC(=O)[C@H](Cc2ccccc2)NC(=O)[C@@H](C(C)C)NC(=O)[C@@H](C(C)CC)NC(=O)[C@H](NC(=O)[C@H](NC(=O)[C@H](CCCN)NC(=O)[C@H]2CCCN2C(=O)[C@H](NC(=O)[C@@H](NC(=O)[C@@H](NC(=O)[C@H](NC(=O)CCC(C)CC)C(C)C)C(C)O)C(C)C)C(C)C)C(C)CC)C(C)OC(=O)[C@H](C(C)C)NC1=O (stereo partly drawn) [Compound 1, (4S)-MeHex-D-Val-ThrVal-D-Val-D-Pro-Orn-D-allo-Ile-cyclo[D-allo-Thr-D-allo-Ile-D-Val-Phe-(Z)Dhb-Val]]
TGI A-549 [1]: 2.05E−06 Molar
GI50 [1]: 0.907 µM
CC50 [1]: 4.63 µM
GI50 [2]: 0.315 µM
TGI MEL-28 [2]: 4.10E−07 Molar
CC50 [2]: 2.1 µM
TGI HT-29 [3]: 2.18E−07 Molar
GI50 [3]: 0.0954 µM
CC50 [3]: 0.498 µM
GI50 [4]: 0.116 µM
TGI LOVO [4]: 2.42E−07 Molar
CC50 [4]: 0.502 µM
GI50 [5]: 0.0636 µM
TGI LOVO-DOX [5]: 2.29E−07 Molar
CC50 [5]: 1.43 µM
GI50 [6]: 0.327 µM
LC50 (concentration causing 50% net cell kill) [6]: 2.54 µM
TGI DU-145 [6]: 8.80E−07 Molar
TGI LN-caP [7]: 2.14E−06 Molar
GI50 [7]: 0.9 µM
CC50 [7]: 5.08 µM
GI50 [8]: 0.0434 µM
LC50 [8]: 0.469 µM
TGI SK-BR-3 [8]: 9.27E−08 Molar
GI50 [9]: 0.158 µM
LC50 (concentration causing 50% net cell killing) [9]: 0.641 µM
TGI IGROV [9]: 3.19E−07 Molar
GI50 [10]: 0.135 µM
TGI IGROV-ET [10]: 2.89E−07 Molar
CC50 [10]: 0.619 µM
GI50 [11]: 0.254 µM
TGI HELA [11]: 7.38E−07 Molar
CC50 [11]: 2.56 µM
GI50 [12]: 0.556 µM
TGI HELA-APL [12]: 1.52E−06 Molar
CC50 [12]: 3.81 µM
GI50 [13]: 1.62 µM
TGI K-562 [13]: 2.96E−06 Molar
CC50 [13]: 5.4 µM
GI50 [14]: 1.82 µM
TGI PANC-1 [14]: 3.66E−06 Molar
CC50 [14]: ≥ 6.77 µM

C/C=C1\NC(=O)[C@H](Cc2ccccc2)NC(=O)[C@@H](CC2CCCCC2)NC(=O)[C@@H](CC2CCCCC2)NC(=O)[C@H](NC(=O)[C@@H](CC2CCCCC2)NC(=O)[C@H](CCCN)NC(=O)[C@H]2CCCN2C(=O)[C@H](NC(=O)[C@@H](NC(=O)[C@@H](NC(=O)[C@H](NC(=O)CCCC(C)C)C(C)C)[C@@H](C)O)C(C)C)C(C)C)[C@@H](C)OC(=O)[C@H](C(C)C)NC1=O [Compound 11, [D-Cha^4, D-Cha^5, D-Cha^7]-KF] ({Hexanoyl(5-Me)}-[dV]TV[dV][dP][Orn][dCha][d(aThr)][dCha][dCha]F[Dhb]V; ester 8-C)
TGI A-549 [1]: 2.60E−07 Molar
GI50 [1]: 0.132 µM
CC50 [1]: 0.511 µM
GI50 [2]: 0.455 µM
TGI MEL-28 [2]: 1.28E−06 Molar
CC50 [2]: 3.03 µM
TGI HT-29 [3]: 1.91E−07 Molar
GI50 [3]: 0.0974 µM
CC50 [3]: 0.377 µM
GI50 [4]: 0.0974 µM
TGI LOVO [4]: 1.99E−07 Molar
CC50 [4]: 0.406 µM
GI50 [5]: 0.0819 µM
TGI LOVO-DOX [5]: 1.64E−07 Molar
CC50 [5]: 0.326 µM
GI50 [6]: 0.22 µM
LC50 (concentration causing 50% net cell kill) [6]: 2.64 µM
TGI DU-145 [6]: 8.56E−07 Molar
TGI LN-caP [7]: 1.40E−06 Molar
GI50 [7]: 0.645 µM
CC50 [7]: 3.01 µM
GI50 [8]: 0.106 µM
LC50 [8]: 0.599 µM
TGI SK-BR-3 [8]: 2.52E−07 Molar
GI50 [9]: 0.19 µM
LC50 (concentration causing 50% net cell killing) [9]: 2.99 µM
TGI IGROV [9]: 5.67E−07 Molar
GI50 [10]: 0.133 µM
TGI IGROV-ET [10]: 3.03E−07 Molar
CC50 [10]: 1.29 µM
GI50 [11]: 0.223 µM
TGI HELA [11]: 8.93E−07 Molar
CC50 [11]: 2.55 µM
GI50 [12]: 0.211 µM
TGI HELA-APL [12]: 8.31E−07 Molar
CC50 [12]: 2.32 µM
GI50 [13]: 1.58 µM
TGI K-562 [13]: 2.56E−06 Molar
CC50 [13]: 4.14 µM
GI50 [14]: 1.43 µM
TGI PANC-1 [14]: 2.74E−06 Molar
CC50 [14]: 5.25 µM

Source: patent US20070117743A1, “New antitumoral compounds” (priority 2003, published 2007)
